Test results taken from patent publication US5270334A, “4-methoxy-5-methyl-pyran-3-ol natural products and derivatives thereof” (E. R. Squibb & Sons, Inc., priority 1992, dated 1993).
≈ marks a conversion by molar mass, not a printed value. Where two headings read alike, the source gives them in different places.

Tests used:
Candida albicans [1] = test: agar diffusion assay with yeasts (zone of inhibition); assay type: cell-based
Procedure: (§1) In addition to M.I.C. determinations, the following methodology was used to determine the activity of the compounds of this invention against yeasts. Fresh F-4 broth cultures of the test organisms were made from frozen vials. The broth cultures were incubated at 30° C. for 18 to 24 hours at which time the average cell count was assumed to be 5×10^7 CFU per ml. They were then used to inoculate flasks containing 300 ml of F-4 agar that had been melted and cooled to 48° C. in a temperature-controlled water bath. The inoculum consisted of 1.7 ml to give an inoculum level of about 2.8×10^5 CFU per ml. 25 ml of the inoculated agar was then poured into 150×15mm sterile Petri dishes and allowed to harden.
(§2) The medium was sterilized at 121° C. for 15 minutes at 15 psi.
(§3) F-4 agar has the same composition as the broth but with the addition of 15 g agar per liter.
(§4) Cellulose discs, 6.35 mm diameter, from Schleicher & Schuell, Inc., Keene, N.H., were charged with 10 μl of a solution composed of 1 mg/ml of lanomycin or scopularin in methanol. The discs were then placed on the surface of the inoculated agar plates of the test yeast strains, and the plates incubated at 30° C. for 18 to 24 hours. At that time, the diameter of the zones of inhibition was measured.

Candida glabrata [2] = test: as above; assay type: cell-based; details: Nakaseomyces glabratus, SC9342; Candida glabrata SC 9342; disc with 10 μl of 1 mg/ml; read-out: Zone diameter
Procedure: as §1, §2, §3, §4

Candida krusei [3] = test: as above; assay type: cell-based; details: Pichia kudriavzevii, SC2969; Candida krusei SC 2969; disc with 10 μl of 1 mg/ml; read-out: Zone diameter
Procedure: as §1, §2, §3, §4

Candida parakrusei [4] = test: as above; assay type: cell-based
Procedure: as §1, §2, §3, §4

Candida quillermondi = test: as above; assay type: cell-based
Procedure: as §1, §2, §3, §4

Candida tropicalis [5] = test: as above; assay type: cell-based
Procedure: as §1, §2, §3, §4

Cryptococcus neoformis = test: as above; assay type: cell-based
Procedure: as §1, §2, §3, §4

Saccaromyces cerevisiae = test: as above; assay type: cell-based; details: read-out: Zone diameter
Procedure: as §1, §2, §3, §4

Candida albicans [6] = test: Anticandidal activity of lanomycin, agar dilution method (Table 5); assay type: cell-based; details: for MIC: 10^4 cfu
Procedure: (§5) MICs were determined by the agar dilution method using a medium composed of tryptone (5 g), malt extract (3 g), glucose (10 g) and yeast extract (3 g) in 1 L distiled water; 10^4 cfu of the test organism was applied to the agar.

Candida glabrata [7] = test: as above; assay type: cell-based; details: for MIC: Nakaseomyces glabratus, 10^4 cfu
Procedure: as §5

Candida guillermondii = test: as above; assay type: cell-based; details: for MIC: 10^4 cfu
Procedure: as §5

Candida krusei [8] = test: as above; assay type: cell-based; details: for MIC: Pichia kudriavzevii, 10^4 cfu
Procedure: as §5

Candida parakrusei [9] = test: as above; assay type: cell-based; details: for MIC: 10^4 cfu
Procedure: as §5

Candida pseudotropicalis = test: as above; assay type: cell-based; details: Kluyveromyces marxianus, SC11241; Candida pseudotropicalis SC 11241; 10^4 cfu
Procedure: as §5

Candida stellatoidea = test: as above; assay type: cell-based; details: Candida albicans, SC2211; Candida stellatoidea SC 2211; 10^4 cfu
Procedure: as §5

Candida tropicalis [10] = test: as above; assay type: cell-based; details: 10^4 cfu
Procedure: as §5

yeasts and fungi = test: activity against a variety of yeasts and fungi (general statement); assay type: cell-based; details: in words
[11] = tested on: cytochrome P450 enzymes, such as lanosterol demethylase; test: inhibition of cytochrome P450 enzymes (general statement); assay type: biochemical; details: in words
dermatophytes = test: antifungal activity of lanomycin; assay type: cell-based; details: in words
Procedure: *Minimal inhibitory concentrations were determined by agar dilution assay
MICs were determined as in Table 5 except that the inoculum was 10^3 cfu.

lanosterol demethylase = target: T1, lanosterol demethylase (Candida albicans, UniProt P10613); test: inhibition of lanosterol demethylase, spectrophotometric carbon monoxide binding assay; details: Candida albicans SGY677; read-out: concentration which gives 50% inhibition of carbon monoxide binding
T1 construct: endogenous in cells; host or cells: Candida albicans SGY677
T1 sequence (P10613 whole entry): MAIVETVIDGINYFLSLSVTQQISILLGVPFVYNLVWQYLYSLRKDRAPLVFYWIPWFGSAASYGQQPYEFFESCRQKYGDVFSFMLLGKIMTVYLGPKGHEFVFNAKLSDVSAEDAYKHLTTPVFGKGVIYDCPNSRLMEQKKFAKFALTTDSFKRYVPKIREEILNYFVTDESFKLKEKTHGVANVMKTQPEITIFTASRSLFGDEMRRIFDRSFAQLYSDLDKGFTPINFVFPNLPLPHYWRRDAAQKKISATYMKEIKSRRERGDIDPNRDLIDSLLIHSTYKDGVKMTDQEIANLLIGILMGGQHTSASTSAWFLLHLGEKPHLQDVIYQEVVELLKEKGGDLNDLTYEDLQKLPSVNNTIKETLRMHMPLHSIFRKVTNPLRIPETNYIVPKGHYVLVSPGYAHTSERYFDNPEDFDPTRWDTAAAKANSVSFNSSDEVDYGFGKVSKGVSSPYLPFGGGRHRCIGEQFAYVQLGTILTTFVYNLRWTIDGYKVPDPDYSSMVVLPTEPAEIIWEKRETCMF
Procedure: The inhibition of lanosterol demethylase was determined by two methods: the spectrophotometric carbon monoxide binding assay of Omura and Sato (J. Biol. Chem. 239:2370-2378, 1964) and by a radiolabeled metabolic assay.
Cells of Candida albicans, SGY677, were grown overnight without shaking at 30° C. in a medium consisting of yeast extract 1%, peptone 2%, glucose 2% and distilled water. Cells were harvested by centrifugation and resuspended in 0.65M mannitol to an optical density at 600 nm of 2.5. At this density 1 ml of cells was equal to 6.7 mg constant dry weight (105° C. for 18 hours).
Scopularin and its alcohol derivative of Example 4 were added to the enzyme and the inhibition of carbon monoxide binding determined over a range of inhibitor concentrations.

[12] = Candida, SC2966, read-out: Zone diameter
[13] = SC2210, Candida quillermondi SC 2210, disc with 10 μl of 1 mg/ml, read-out: Zone diameter
[14] = Saccaromyces cerevisiae SGY 379, disc with 10 μl of 1 mg/ml

C/C=C/C=C/C=C(\C)[C@H]1OC[C@@H](C)[C@@H](OC)[C@@H]1OC(=O)CN (relative stereo) [Lanomycin]
zone of inhibition at 1000 µg/mL (Candida albicans [1]; SC4314, Candida albicans SC 4314, disc with 10 μl of 1 mg/ml, read-out: Zone diameter): 32 mm | zone of inhibition at 1000 µg/mL (Candida glabrata [2]): 33 mm | zone of inhibition at 1000 µg/mL (Candida krusei [3]): 12 mm | zone of inhibition at 1000 µg/mL (Candida parakrusei [4]; Candida, SC2621, read-out: Zone diameter): 27 mm | zone of inhibition at 1000 µg/mL (Candida parakrusei [4]; [12]): 12 mm | zone of inhibition at 1000 µg/mL (Candida quillermondi; Candida, SC2996, read-out: Zone diameter): 29 mm | zone of inhibition at 1000 µg/mL (Candida quillermondi; [13]): 30 mm | zone of inhibition at 1000 µg/mL (Candida tropicalis [5]; Candida tropicalis, SC2963, read-out: Zone diameter): 28 mm | zone of inhibition at 1000 µg/mL (Candida tropicalis [5]; Candida tropicalis, SC8159, read-out: Zone diameter): 29 mm | zone of inhibition at 1000 µg/mL (Cryptococcus neoformis; Cryptococcus, SC5817, read-out: Zone diameter): 21 mm | zone of inhibition at 1000 µg/mL (Saccaromyces cerevisiae; Saccaromyces cerevisiae SGY 195, disc with 10 μl of 1 mg/ml): 25 mm | zone of inhibition at 1000 µg/mL (Saccaromyces cerevisiae; [14]): 30 mm | MIC (Candida albicans [6]; SC5314, Candida albicans SC 5314): > 100 µg/mL | MIC (Candida albicans [6]; SC9177, Candida albicans SC 9177): 100 µg/mL (≈ 323 µM) | MIC (Candida albicans [6]; SC9721, Candida albicans SC 9721): 100 µg/mL (≈ 323 µM) | MIC (Candida albicans [6]; SC10102, Candida albicans SC 10102): > 100 µg/mL | MIC (Candida albicans [6]; SC10580, Candida albicans SC 10580): > 100 µg/mL | MIC (Candida albicans [6]; SC10584, Candida albicans SC 10584): 50 µg/mL (≈ 162 µM) | MIC (Candida albicans [6]; SC10585, Candida albicans SC 10585): 100 µg/mL (≈ 323 µM) | MIC (Candida albicans [6]; SC11422, Candida albicans SC 11422): 100 µg/mL (≈ 323 µM) | MIC (Candida albicans [6]; SC12734, Candida albicans SC 12734): > 100 µg/mL | MIC (Candida albicans [6]; SC14021, Candida albicans SC 14021): > 100 µg/mL | activity against the C. albicans species tested (Candida albicans [6]; in words, Table 5): active | MIC (Candida glabrata [7]; SC9342, Candida glabrata SC 9342): 0.8 µg/mL (≈ 2.59 µM) | MIC (Candida glabrata [7]; SC11267, Candida glabrata SC 11267): 25 µg/mL (≈ 80.8 µM) | activity against certain strains of C. glabrata (Candida glabrata [7]; in words, Table 5): good activity | MIC (Candida guillermondii; SC2210, Candida guillermondii SC 2210): 50 µg/mL (≈ 162 µM) | MIC (Candida guillermondii; SC2996, Candida guillermondii SC 2996): 1.6 µg/mL (≈ 5.17 µM) | activity against certain strains of C. guillermondii (Candida guillermondii; in words, Table 5): good activity | MIC (Candida krusei [8]; SC2967, Candida krusei SC 2967): 6.3 µg/mL (≈ 20.4 µM) | MIC (Candida krusei [8]; SC2968, Candida krusei SC 2968): 12.5 µg/mL (≈ 40.4 µM) | MIC (Candida krusei [8]; SC2969, Candida krusei SC 2969): 25 µg/mL (≈ 80.8 µM) | activity against certain strains of C. krusei (Candida krusei [8]; in words, Table 5): good activity | MIC (Candida parakrusei [9]; SC2621, Candida parakrusei SC 2621): 12.5 µg/mL (≈ 40.4 µM) | MIC (Candida parakrusei [9]; SC2966, Candida parakrusei SC 2966): 25 µg/mL (≈ 80.8 µM) | activity against certain strains of C. parakrusei (Candida parakrusei [9]; in words, Table 5): good activity | MIC (Candida pseudotropicalis): 50 µg/mL (≈ 162 µM) | MIC (Candida stellatoidea): 50 µg/mL (≈ 162 µM) | MIC (Candida tropicalis [10]; SC2963, Candida tropicalis SC 2963): 25 µg/mL (≈ 80.8 µM) | MIC (Candida tropicalis [10]; SC8159, Candida tropicalis SC 8159): > 100 µg/mL | MIC (Candida tropicalis [10]; SC9861, Candida tropicalis SC 9861): 100 µg/mL (≈ 323 µM) | MIC (Candida tropicalis [10]; SC10597, Candida tropicalis SC 10597): 100 µg/mL (≈ 323 µM) | activity against a variety of yeasts and fungi (yeasts and fungi): has activity | inhibition of cytochrome P450 enzymes, such as lanosterol demethylase [11]: inhibit | activity against dermatophytes (dermatophytes; Table 4): showed activity | activity against dermatophytes (dermatophytes; Table 6): active

CCC/C=C/C=C/C=C(\C)[C@H]1OC[C@@H](C)[C@@H](OC)[C@@H]1OC(=O)CN (relative stereo) [Scopularin, (2α, 3β, 4α, 5α)-Tetrahydro-4-methoxy-5-methyl-2-(1-methyl-1,3,5-nonatrienyl)-2H-pyran-3-ol, aminoacetate ester]
zone of inhibition at 1000 µg/mL (Candida albicans [1]; Candida albicans, SC4314, read-out: Zone diameter): 37 mm | zone of inhibition at 1000 µg/mL (Candida glabrata [2]): 36 mm | zone of inhibition at 1000 µg/mL (Candida krusei [3]): 20 mm | zone of inhibition at 1000 µg/mL (Candida parakrusei [4]; [12]): 20 mm | zone of inhibition at 1000 µg/mL (Candida parakrusei [4]; SC2621, Candida parakrusei SC 2621, disc with 10 μl of 1 mg/ml, read-out: Zone diameter): 31 mm | zone of inhibition at 1000 µg/mL (Candida quillermondi; [13]): 31 mm | zone of inhibition at 1000 µg/mL (Candida quillermondi; SC2996, Candida quillermondi SC 2996, disc with 10 μl of 1 mg/ml, read-out: Zone diameter): 32 mm | zone of inhibition at 1000 µg/mL (Candida tropicalis [5]; SC2963, Candida tropicalis SC 2963, disc with 10 μl of 1 mg/ml, read-out: Zone diameter): 32 mm | zone of inhibition at 1000 µg/mL (Candida tropicalis [5]; SC8159, Candida tropicalis SC 8159, disc with 10 μl of 1 mg/ml, read-out: Zone diameter): 30 mm | zone of inhibition at 1000 µg/mL (Cryptococcus neoformis; SC5817, Cryptococcus neoformis SC 5817, disc with 10 μl of 1 mg/ml, read-out: Zone diameter): 25 mm | zone of inhibition at 1000 µg/mL (Saccaromyces cerevisiae; [14]): 30 mm | zone of inhibition at 1000 µg/mL (Saccaromyces cerevisiae): 23 mm | IC50 (lanosterol demethylase): 36 µM | activity against a variety of yeasts and fungi (yeasts and fungi): has activity | inhibition of cytochrome P450 enzymes, such as lanosterol demethylase [11]: inhibit
